Experimental data reported in the CheMixHub viscosity set.
± gives the uncertainty stated by the source.

Experiment: xn = mol fraction of the nth substance listed

OCc1ccccc1 + CCCCCC
viscosity [mPa·s], 101.3 kPa
Conditions | 303.15 K | 313.15 K | 323.15 K
x1 = 0.0101 | 0.303 ± 0.025 | 0.284 ± 0.024 | 0.254 ± 0.022
x2 = 0.0312 | 4.044 ± 0.23 | 3.013 ± 0.17 | 2.36 ± 0.14
x2 = 0.0645 | 3.832 ± 0.22 | 2.754 ± 0.16 | 2.173 ± 0.13
x2 = 0.0976 | 3.35 ± 0.19 | 2.394 ± 0.14 | 1.974 ± 0.12
x2 = 0.1313 | 3.119 ± 0.18 | 2.256 ± 0.13 | 1.79 ± 0.11
x2 = 0.1653 | 2.649 ± 0.15 | 2.004 ± 0.12 | 1.616 ± 0.098
x2 = 0.2056 | 2.328 ± 0.14 | 1.827 ± 0.11 | 1.455 ± 0.089
x2 = 0.255 | 1.972 ± 0.12 | 1.615 ± 0.098 | 1.327 ± 0.082
x2 = 0.8792 | 0.364 ± 0.028 | 0.335 ± 0.027 | 0.307 ± 0.025
x2 = 0.955 | 0.326 ± 0.026 | 0.302 ± 0.025 | 0.268 ± 0.023
x2 = 0.9699 | 0.32 ± 0.026 | 0.3 ± 0.025 | 0.262 ± 0.023
x2 = 0.9799 | 0.312 ± 0.025 | 0.292 ± 0.024 | 0.258 ± 0.022

Nc1ccccc1[N+](=O)[O-] + CC(C)=O
viscosity [mPa·s], 101 kPa
Conditions | 298.15 K | 303.15 K | 308.15 K | 313.15 K
x1 = 0.3297 | 1.229 ± 0.031 | 1.142 ± 0.029 | 1.059 ± 0.027 | 0.9826 ± 0.025
x1 = 0.5407 | 2.366 ± 0.06 | 2.175 ± 0.055 | 1.994 ± 0.05 | 1.817 ± 0.046

CCC(=O)CC + CCOC(=O)OCC
viscosity [mPa·s], 101 kPa
Conditions | x2 = 0.0893 | x2 = 0.1498 | x2 = 0.2601 | x2 = 0.3555 | x2 = 0.4667 | x2 = 0.5689 | x2 = 0.6701 | x2 = 0.7565 | x2 = 0.8858 | x2 = 0.9501
303.15 K | 0.452 ± 0.013 | 0.468 ± 0.014 | 0.496 ± 0.015 | 0.521 ± 0.015 | 0.55 ± 0.016 | 0.578 ± 0.016 | 0.606 ± 0.017 | 0.631 ± 0.018 | 0.668 ± 0.019 | 0.686 ± 0.019
308.15 K | 0.417 ± 0.013 | 0.431 ± 0.013 | 0.457 ± 0.014 | 0.481 ± 0.014 | 0.509 ± 0.015 | 0.535 ± 0.015 | 0.563 ± 0.016 | 0.586 ± 0.017 | 0.622 ± 0.018 | 0.641 ± 0.018
313.15 K | 0.405 ± 0.012 | 0.417 ± 0.013 | 0.439 ± 0.013 | 0.459 ± 0.014 | 0.484 ± 0.014 | 0.508 ± 0.015 | 0.532 ± 0.015 | 0.554 ± 0.016 | 0.589 ± 0.017 | 0.607 ± 0.017

OCc1ccccc1 + Clc1ccccc1
303.15 K, 101 kPa
Conditions | viscosity [mPa·s]
x1 = 0.1372 | 0.9498 ± 0.009
x1 = 0.2844 | 1.158 ± 0.011
x1 = 0.3371 | 1.26 ± 0.012
x1 = 0.4255 | 1.459 ± 0.013
x1 = 0.5741 | 1.907 ± 0.017
x1 = 0.6507 | 2.212 ± 0.02
x1 = 0.7556 | 2.713 ± 0.024
x1 = 0.8031 | 2.982 ± 0.026
x1 = 0.9053 | 3.662 ± 0.032

O=S(=O)([O-])[O-].[Cu+2] + O
viscosity [mPa·s]
Conditions | 308.15 K | 313.15 K | 323.15 K
101.3 kPa, x1 = 0.00112 | 0.742 ± 0.019 | 0.673 ± 0.018 | 0.5823 ± 0.016
101.3 kPa, x1 = 0.002247 | 0.7918 ± 0.021 | 0.7176 ± 0.019 | 0.6001 ± 0.016
101.3 kPa, x1 = 0.004484 | 0.8376 ± 0.022 | 0.7579 ± 0.02 | 0.6314 ± 0.017
101.3 kPa, x1 = 0.008927 | 0.9348 ± 0.024 | 0.8476 ± 0.022 | 0.7076 ± 0.019
101.3 kPa, x1 = 0.0177 | – | 0.977 ± 0.025 | 0.817 ± 0.021
101.33 kPa, x1 = 0.000905 | 0.7428 ± 0.014 | 0.6739 ± 0.013 | 0.5628 ± 0.011
101.33 kPa, x1 = 0.002718 | 0.7922 ± 0.015 | 0.7182 ± 0.014 | 0.6005 ± 0.012
101.33 kPa, x1 = 0.00453 | 0.838 ± 0.016 | 0.7585 ± 0.014 | 0.6319 ± 0.012
101.33 kPa, x1 = 0.006344 | 0.8866 ± 0.017 | 0.8013 ± 0.015 | 0.6685 ± 0.013
101.33 kPa, x1 = 0.008159 | 0.9348 ± 0.017 | 0.8482 ± 0.016 | 0.7082 ± 0.014

OCc1ccccc1 + CC(C)O
viscosity [mPa·s], 101 kPa
Conditions | x1 = 0.076 | x1 = 0.1562 | x1 = 0.2409 | x1 = 0.3305 | x1 = 0.4254 | x1 = 0.5262 | x1 = 0.6334 | x1 = 0.7476 | x1 = 0.8695
298.15 K | 2.033 ± 0.092 | 2.167 ± 0.097 | 2.366 ± 0.11 | 2.607 ± 0.12 | 2.88 ± 0.13 | 3.203 ± 0.14 | 3.57 ± 0.16 | 3.975 ± 0.17 | 4.423 ± 0.19
303.15 K | 1.776 ± 0.081 | 1.896 ± 0.086 | 2.06 ± 0.093 | 2.258 ± 0.1 | 2.486 ± 0.11 | 2.756 ± 0.12 | 3.06 ± 0.13 | 3.4 ± 0.15 | 3.785 ± 0.16
308.15 K | 1.532 ± 0.071 | 1.649 ± 0.076 | 1.796 ± 0.082 | 1.975 ± 0.089 | 2.172 ± 0.098 | 2.406 ± 0.11 | 2.675 ± 0.12 | 2.975 ± 0.13 | 3.304 ± 0.14
313.15 K | 1.338 ± 0.063 | 1.432 ± 0.067 | 1.556 ± 0.072 | 1.701 ± 0.078 | 1.87 ± 0.085 | 2.07 ± 0.093 | 2.303 ± 0.1 | 2.557 ± 0.11 | 2.828 ± 0.13

CN1CCCC1=O + CCC(C)O
viscosity [mPa·s], 101.3 kPa
Conditions | x2 = 0.1049 | x2 = 0.4019 | x2 = 0.5003
293.15 K | 1.815 ± 0.021 | – | –
313.15 K | – | 1.285 ± 0.015 | 1.285 ± 0.015

CCCCCCCCCCCCCC[P+](CCCCCC)(CCCCCC)CCCCCC.[O-]c1ccccc1 + O=C=O
Conditions | viscosity [mPa·s]
298.15 K, 100 kPa, x2 = 0.5 | 368 ± 14

NCCO + CCCCCCO
viscosity [mPa·s], 101.3 kPa
Conditions | x1 = 0.1 | x1 = 0.2 | x1 = 0.3 | x1 = 0.4 | x1 = 0.5 | x1 = 0.6 | x1 = 0.7 | x1 = 0.8 | x1 = 0.9
303.15 K | 4.07 ± 0.07 | 4.48 ± 0.08 | 5.04 ± 0.09 | 5.68 ± 0.1 | 6.54 ± 0.11 | 7.62 ± 0.13 | 8.84 ± 0.15 | 10.4 ± 0.18 | 12.3 ± 0.22
313.15 K | 3.08 ± 0.05 | 3.34 ± 0.06 | 3.72 ± 0.06 | 4.15 ± 0.07 | 4.7 ± 0.08 | 5.41 ± 0.09 | 6.17 ± 0.11 | 7.18 ± 0.13 | 8.31 ± 0.15
323.15 K | 2.37 ± 0.04 | 2.57 ± 0.04 | 2.84 ± 0.05 | 3.13 ± 0.05 | 3.51 ± 0.06 | 3.98 ± 0.07 | 4.49 ± 0.08 | 5.16 ± 0.09 | 5.88 ± 0.1

OCc1ccccc1 + CCCO
viscosity [mPa·s], 101 kPa
Conditions | x1 = 0.0744 | x1 = 0.1531 | x1 = 0.2366 | x1 = 0.3252 | x1 = 0.4196 | x1 = 0.5203 | x1 = 0.6278 | x1 = 0.7431 | x1 = 0.8668
298.15 K | 2.038 ± 0.092 | 2.197 ± 0.098 | 2.401 ± 0.11 | 2.651 ± 0.12 | 2.932 ± 0.13 | 3.25 ± 0.14 | 3.593 ± 0.16 | 3.99 ± 0.17 | 4.433 ± 0.19
303.15 K | 1.796 ± 0.082 | 1.918 ± 0.087 | 2.083 ± 0.094 | 2.288 ± 0.1 | 2.52 ± 0.11 | 2.783 ± 0.12 | 3.071 ± 0.13 | 3.404 ± 0.15 | 3.776 ± 0.16
308.15 K | 1.587 ± 0.073 | 1.687 ± 0.077 | 1.828 ± 0.083 | 2.002 ± 0.09 | 2.201 ± 0.099 | 2.429 ± 0.11 | 2.678 ± 0.12 | 2.967 ± 0.13 | 3.292 ± 0.14
313.15 K | 1.368 ± 0.064 | 1.447 ± 0.067 | 1.562 ± 0.072 | 1.709 ± 0.078 | 1.877 ± 0.086 | 2.07 ± 0.094 | 2.282 ± 0.1 | 2.53 ± 0.11 | 2.807 ± 0.12

CCCCC(CC)C(=O)OCC(COC(=O)C(CC)CCCC)(COC(=O)C(CC)CCCC)COC(=O)C(CC)CCCC (centres undefined) + CCCCC(=O)OCC(COC(=O)CCCC)(COC(=O)CCCC)COC(=O)CCCC
Conditions | viscosity [mPa·s]
313.15 K, 100 kPa, x1 = 0.6911 | 32.3 ± 2.1

OCc1ccccc1 + C1COCCO1
viscosity [mPa·s], 101 kPa
Conditions | x1 = 0.201 | x1 = 0.2986 | x1 = 0.4001 | x1 = 0.4991 | x1 = 0.7017 | x1 = 0.9009
303.15 K | 1.398 ± 0.068 | 1.609 ± 0.078 | 1.842 ± 0.088 | 2.149 ± 0.1 | 2.975 ± 0.14 | 4.03 ± 0.19
308.15 K | 1.288 ± 0.063 | 1.456 ± 0.071 | 1.679 ± 0.081 | 1.92 ± 0.092 | 2.615 ± 0.12 | 3.54 ± 0.17
313.15 K | 1.178 ± 0.058 | 1.385 ± 0.068 | 1.553 ± 0.075 | 1.797 ± 0.086 | 2.387 ± 0.11 | 3.199 ± 0.15
